Columns and labels:
Format in all cases: in vivo
Conditions in all cases: 250 g/ha, after 13 days
[1] = tested on: Abutilon theophrasti (ABUTH); assay: B2 Post-Emergence Efficacy Test 2
Method: (§1) Seeds of a variety of test species are sown in standard soil in pots:— Amaranthus retoflexus (AMARE), Setaria faberi (SETFA), Echinochloa crus-galli (ECHCG), Ipomoea hederacea (IPOHE), Zea Mays (ZEAMX), Abutilon theophrasti (ABUTH). After 8 days cultivation (post-emergence) under controlled conditions in a glasshouse (at 24/16° C., day/night; 14 hours light; 65% humidity), the plants are sprayed with an aqueous spray solution derived from the formulation of the technical active ingredient in acetone/water (50:50) solution containing 0.5% Tween 20 (polyoxyethylene sorbitan monolaurate, CAS RN 9005-64-5). Compounds are applied at 250 g/ha. The test plants are then grown in a glasshouse under controlled conditions in a glasshouse (at 24/16° C., day/night; 14 hours light; 65% humidity) and watered twice daily. After 13 days, the test is evaluated for the percentage damage caused to the plant. The biological activities are assessed on a five point scale (5=80-100%; 4=60-79%; 3=40-59%; 2=20-39%; 1=0-19%). A blank value in the table is indicative that the compound was not tested on that species.

[2] = tested on: Amaranthus retoflexus (AMARE); assay: B2 Post-Emergence Efficacy Test 2
Method: as §1

[3] = tested on: Echinochloa crus-galli (ECHCG); assay: B2 Post-Emergence Efficacy Test 2
Method: as §1

[4] = tested on: Ipomoea hederacea (IPOHE); assay: B2 Post-Emergence Efficacy Test 2
Method: as §1

Setaria faberi (SETFA) [5] = assay: B2 Post-Emergence Efficacy Test 2
Method: as §1

Zea Mays (ZEAMX) [6] = assay: B2 Post-Emergence Efficacy Test 2
Method: as §1

[7] = tested on: Abutilon theophrasti (ABUTH); assay: B4 Pre-Emergence Efficacy Test 2
Method: (§2) Seeds of a variety of test species were sown in standard soil in pots: Amaranthus retoflexus (AMARE), Setaria faberi (SETFA), Echinochloa crus-galli (ECHCG), Ipomoea hederacea (IPOHE), Zea Mays (ZEAMX), Abutilon theophrasti (ABUTH). After cultivation for one day (pre-emergence) under controlled conditions in a glasshouse (at 24/16° C., day/night; 14 hours light; 65% humidity), the plants were sprayed with an aqueous spray solution derived from the formulation of the technical active ingredient in acetone/water (50:50) solution containing 0.5% Tween 20 (polyoxyethelyene sorbitan monolaurate, CAS RN 9005-64-5). Compounds are applied at 250 g/ha. The test plants were then grown in a glasshouse under controlled conditions (at 24/16° C., day/night; 14 hours light; 65% humidity) and watered twice daily. After 13 days, the test is evaluated for the percentage damage caused to the plant. The biological activities are assessed on a five point scale (5=80-100%; 4=60-79%; 3=40-59%; 2=20-39%; 1=0-19%). A blank value in the table is indicative that the compound was not tested on that species.

[8] = tested on: Amaranthus retoflexus (AMARE); assay: B4 Pre-Emergence Efficacy Test 2
Method: as §2

[9] = tested on: Echinochloa crus-galli (ECHCG); assay: B4 Pre-Emergence Efficacy Test 2
Method: as §2

[10] = tested on: Ipomoea hederacea (IPOHE); assay: B4 Pre-Emergence Efficacy Test 2
Method: as §2

Setaria faberi (SETFA) [11] = assay: B4 Pre-Emergence Efficacy Test 2
Method: as §2

Zea Mays (ZEAMX) [12] = assay: B4 Pre-Emergence Efficacy Test 2
Method: as §2

SMILES	percentage damage caused to the plant, five point scale, ABUTH [1]	percentage damage caused to the plant, five point scale, AMARE [2]	percentage damage caused to the plant, five point scale, ECHCG [3]	percentage damage caused to the plant, five point scale, IPOHE [4]	percentage damage caused to the plant, five point scale, SETFA (Setaria faberi (SETFA) [5])	percentage damage caused to the plant, five point scale, ZEAMX (Zea Mays (ZEAMX) [6])	percentage damage caused to the plant, five point scale, ABUTH [7]	percentage damage caused to the plant, five point scale, AMARE [8]	percentage damage caused to the plant, five point scale, ECHCG [9]	percentage damage caused to the plant, five point scale, IPOHE [10]	percentage damage caused to the plant, five point scale, SETFA (Setaria faberi (SETFA) [11])	percentage damage caused to the plant, five point scale, ZEAMX (Zea Mays (ZEAMX) [12])
Cc1nn(C)c(=O)c(-c2c(F)ccc(Cl)c2CCc2ccc3ncsc3c2)c1O [Compound 1.349]	4 (4=60-79%)	4 (4=60-79%)	4 (4=60-79%)	4 (4=60-79%)	4 (4=60-79%)	2 (2=20-39%)	4 (4=60-79%)	5 (5=80-100%)	5 (5=80-100%)	5 (5=80-100%)	5 (5=80-100%)	4 (4=60-79%)
Cc1nn(C)c(=O)c(-c2c(F)ccc(Cl)c2CCc2ccc3scnc3c2)c1O [Compound 1.350, 4-[2-[2-(1,3-benzothiazol-5-yl)ethyl]-3-chloro-6-fluoro-phenyl]-5-hydroxy-2,6-dimethyl-pyridazin-3-one]	5 (5=80-100%)	4 (4=60-79%)	4 (4=60-79%)	3 (3=40-59%)	4 (4=60-79%)	3 (3=40-59%)	5 (5=80-100%)	5 (5=80-100%)	5 (5=80-100%)	5 (5=80-100%)	5 (5=80-100%)	4 (4=60-79%)
Cc1nn(C)c(=O)c(-c2c(F)ccc(Cl)c2CCc2ccc3c(C)noc3c2)c1O [Compound 1.351]	5 (5=80-100%)	5 (5=80-100%)	4 (4=60-79%)	5 (5=80-100%)	4 (4=60-79%)	5 (5=80-100%)	5 (5=80-100%)	5 (5=80-100%)	5 (5=80-100%)	5 (5=80-100%)	5 (5=80-100%)	5 (5=80-100%)
Cc1nn(C)c(=O)c(-c2c(F)ccc(Cl)c2CCc2ccc3oc(=O)[nH]c3c2)c1O [Compound 1.352]	4 (4=60-79%)	4 (4=60-79%)	4 (4=60-79%)	3 (3=40-59%)	4 (4=60-79%)	3 (3=40-59%)	4 (4=60-79%)	5 (5=80-100%)	3 (3=40-59%)	3 (3=40-59%)	5 (5=80-100%)	4 (4=60-79%)

Source: patent US12540128B2, “Substituted pyridazinones as herbicides” (SYNGENTA CROP PROTECTION AG, priority 2019, dated 2026)
